Assay [1] concerns Calu-6. Kind of assay: Antitumor activity against human Calu-6 cells xenografted in CD1 nu/nu mouse assessed as tumor growth inhibition at 60 mg/kg, […] q3d administered via gavage for 7 days measured twice per week during compound dosing. Format: functional, organism-based. Particulars: time 7.0 day. For orientation: In xenograft studies the graft and the host belong to different species.

Assay [2] relates to Calu-6. Kind of assay: Antitumor activity against human Calu-6 cells xenografted in CD1 nu/nu mouse assessed as tumor growth inhibition at 150 mg/kg, […] q3d administered via gavage for 4 days measured twice per week during compound dosing. It counts as functional, organism-based. Particulars: time 4.0 day.

The source made the active and inactive calls. No cut-off for these calls is given here.

Consider `Nc1ccn([C@@H]2O[C@H](CO)[C@@H](O)C2(F)F)c(=O)n1`, for which the TGI result with Calu-6 [1] and with Calu-6 [2] was “Active” in each case.

Source of the values: ChEMBL document CHEMBL5678811 (Invest New Drugs, 2014).
